Laboratory results reported in US20170210741A1, “Benzimidazole Compounds, Use As Inhibitors of WNT Signaling Pathway in Cancers, and Methods for Preparation Thereof” (Southern Research Institute, priority 2016, published 2017).
Read-outs that look alike come from different tables or passages of the source.

Tests used:
Type in all cases: cell-based
Suit-2 = assay: In vitro cell viability assay (Cell Titer Glo), pancreatic cancer Suit-2; details: 72 h
Method: (§1) Breast cancer SUM159 was obtained from Asterand and grown according to supplier's recommendation. All other cell lines were obtained from ATCC and cultured in standard cell culture conditions with complete cell culture medium containing 10% FBS.
(§2) Cancer cells were seeded into optically clear tissue culture-treated black 96-well plates (for adherent cells) or low-attachment 96-well plates (for cancer stem cells) at 2,000-5000 cells/50 μL of media per well. The cells were treated with Wnt inhibitors at 0.1 to 10 μM for 72 h. Cell viability was measured by the Cell Titer Glo Assay from Promega.

S2VP10 = assay: In vitro cell viability assay (Cell Titer Glo), pancreatic cancer S2VP10; details: 72 h
Method: as §1, §2

HCC1143 = assay: In vitro cell viability assay (Cell Titer Glo), breast cancer HCC1143; details: Homo sapiens, 72 h
Method: as §1, §2
(§3) Table 5 below illustrates the effects of the disclosed compounds on cell viability of breast cancer cell lines.

L3.6pl = assay: In vitro cell viability assay (Cell Titer Glo), pancreatic cancer L3.6pl; details: Homo sapiens, 72 h
Method: as §1, §2

SUM159 = assay: In vitro cell viability assay (Cell Titer Glo), breast cancer SUM159; details: 72 h
Method: as §1, §2, §3

PANC-1 = assay: In vitro cell viability assay (Cell Titer Glo), pancreatic cancer PANC-1; details: Homo sapiens, 72 h
Method: as §1, §2

2LMP = assay: In vitro cell viability assay (Cell Titer Glo), breast cancer 2LMP; details: 72 h
Method: as §1, §2, §3

Wnt signaling = Wnt signaling reporter assay (Super8XTOPFlash luciferase) in LRP6-expressing HEK293 cells; details: Homo sapiens, 24 h treatment, luciferase normalized to β-galactosidase, read-out: IC50 (effects on Wnt signaling)
Method: HEK293 cells were plated into 24-well plates. After overnight culture, the cells were transiently transfected with 0.06 μg of the Super8XTOPFlash luciferase construct, 0.06 μg of β-galactosidase-expressing vector, and 0.06 μg of pCS-Myc-hLRP6 or control vector. After 24 h incubation, cells were treated with each individual compound in triplicate for 24 h. Cells were then lysed, and the luciferase and β-galactosidase activities were determined by the luciferase assay system (Promega) and β-galactosidase assay system (Promega), respectively. The luciferase activity was normalized to the β-galactosidase activity.
Table 2 below illustrates the effects of the disclosed compounds on Wnt signaling in LRP6-expressing HEK293 cells.

MDA-MB-468 = assay: In vitro cell viability assay (Cell Titer Glo), breast cancer MDA-MB-468; details: Homo sapiens, 72 h
Method: as §1, §2, §3

HCT116 = assay: In vitro cell viability assay (Cell Titer Glo), colorectal cancer HCT116; details: Homo sapiens, HCT-116, 72 h
Method: as §1, §2
(§4) Table 4 below illustrates the effects of the disclosed compounds on cell viability of colorectal cancer cell lines.

HT-29 = assay: In vitro cell viability assay (Cell Titer Glo), colorectal cancer HT-29; details: Homo sapiens, 72 h
Method: as §1, §2, §4

[1] = Suit-2, CSC enriching serum free medium, non-adherent plates, read-out: Cell viability (IC50) Suit-2 CSC
[2] = Suit-2, adherent, complete medium 10% FBS, read-out: Cell viability (IC50) Suit-2 Adherent
[3] = S2VP10, CSC enriching serum free medium, non-adherent plates, read-out: Cell viability (IC50) S2VP10 CSC
[4] = S2VP10, adherent, complete medium 10% FBS, read-out: Cell viability (IC50) S2VP10 Adherent
[5] = HCC1143, CSC conditions, read-out: Cell viability (IC50) HCC1143 CSC
[6] = HCC1143, adherent, read-out: Cell viability (IC50) HCC1143 Adherent
[7] = CSC enriching serum free medium, non-adherent plates, read-out: Cell viability (IC50) L3.6pl CSC
[8] = SUM159, CSC conditions, read-out: Cell viability (IC50) SUM159 CSC
[9] = SUM159, adherent, read-out: Cell viability (IC50) SUM159 Adherent
[10] = PANC-1, adherent, complete medium 10% FBS, read-out: Cell viability (IC50) PANC-1 Adherent
[11] = PANC-1, cancer stem cell (CSC) enriching serum free medium, non-adherent plates, read-out: Cell viability (IC50) PANC-1 CSC
[12] = CSC conditions, read-out: Cell viability (IC50) 2LMP CSC
[13] = adherent, read-out: Cell viability (IC50) 2LMP Adherent
[14] = MDA-MB-468, CSC conditions, read-out: Cell viability (IC50) MDA-MB-468 CSC
[15] = MDA-MB-468, adherent, read-out: Cell viability (IC50) MDA-MB-468 Adherent
[16] = HCT116, CSC conditions, read-out: Cell viability (IC50) HCT116 CSC
[17] = HCT116, adherent, read-out: Cell viability (IC50) HCT116 Adherent
[18] = HT-29, CSC conditions, read-out: Cell viability (IC50) HT-29 CSC
[19] = HT-29, adherent, read-out: Cell viability (IC50) HT-29 Adherent
[20] = adherent, complete medium 10% FBS, read-out: Cell viability (IC50) L3.6pl Adherent

SMILES	IC50 (Suit-2; [1])	IC50 (Suit-2; [2])	IC50 (S2VP10; [3])	IC50 (S2VP10; [4])	IC50 (HCC1143; [5])	IC50 (HCC1143; [6])	IC50 (L3.6pl; [7])	IC50 (SUM159; [8])	IC50 (SUM159; [9])	IC50 (PANC-1; [10])	IC50 (PANC-1; [11])	IC50 (2LMP; [12])	IC50 (2LMP; [13])	IC50 (Wnt signaling)	IC50 (MDA-MB-468; [14])	IC50 (MDA-MB-468; [15])	IC50 (HCT116; [16])	IC50 (HCT116; [17])	IC50 (HT-29; [19])	other results
FC(F)(F)Oc1ccc(-c2nc3cc(Cl)c(Cl)cc3[nH]2)cc1 [Compound 6, 5,6-Dichloro-2-(4-(trifluoromethoxy)phenyl)-1H-benzo[d]imidazole]	560 nM	2120 nM	590 nM	2570 nM	1300 nM	3180 nM	930 nM	1170 nM	1670 nM	3440 nM	570 nM	2900 nM	3840 nM	190 nM	330 nM	3830 nM	1610 nM	3840 nM	4380 nM	IC50 (HT-29; [18]): 860 nM
Oc1ccc(F)cc1-c1nc2cc(Cl)c(F)cc2[nH]1 [Compound 3, 2-(5-Chloro-6-fluoro-1H-benzo[d]imidazol-2-yl)-4-fluorophenol]	1810 nM	3760 nM	330 nM	1100 nM	–	–	–	–	–	2320 nM	410 nM	–	–	2800 nM	–	–	180 nM	1610 nM	6470 nM	IC50 (HT-29; [18]): 3090 nM
FC(F)(F)Oc1ccc(-c2nc3c(Cl)cc(Cl)cc3[nH]2)cc1 [Compound 8, 4,6-Dichloro-2-(4-(trifluoromethoxy)phenyl)-1H-benzo[d]imidazole]	840 nM	8920 nM	770 nM	4860 nM	–	–	620 nM	–	–	> 10000 nM	1060 nM	–	–	7920 nM	–	–	–	–	–	IC50 (L3.6pl; [20]): 1190 nM
Oc1c(Cl)cccc1-c1nc2cc(C(F)(F)F)ccc2[nH]1 [Compound 5, 2-Chloro-6-(5-(trifluoromethyl)-1H-benzo[d]imidazol-2-yl)phenol]	1150 nM	3160 nM	210 nM	1040 nM	500 nM	1190 nM	–	340 nM	500 nM	1330 nM	180 nM	920 nM	1150 nM	2770 nM	170 nM	1410 nM	–	–	–	–
FC(F)(F)c1ccc(-c2nc3c(Cl)cc(Cl)cc3[nH]2)cc1 [Compound 7, 4,6-Dichloro-2-(4-(trifluoromethyl)phenyl)-1H-benzo[d]imidazole]	610 nM	5210 nM	770 nM	3880 nM	700 nM	4500 nM	660 nM	900 nM	1130 nM	4470 nM	300 nM	13000 nM	16800 nM	6010 nM	160 nM	1290 nM	–	–	–	IC50 (L3.6pl; [20]): 570 nM
Oc1ccc(F)cc1-c1nc2c(Cl)cc(Cl)cc2[nH]1 [Compound 1, 2-(4,6-Dichloro-1H-benzo[d]imidazol-2-yl)-4-fluorophenol]	2840 nM	9130 nM	920 nM	1620 nM	–	–	–	–	–	1740 nM	210 nM	–	–	1340 nM	–	–	–	–	–	–
CN1CCN(c2ccc(-c3nc4cc(Cl)c(Cl)cc4[nH]3)cc2F)CC1 [Compound 27, 5,6-dichloro-2-(3-fluoro-4-(4-methylpiperazin-1-yl)phenyl)-1H-benzo[d]imidazole]	1990 nM	8920 nM	2910 nM	8310 nM	–	–	–	–	–	–	–	–	–	4.67 nM	–	–	1760 nM	830 nM	140 nM	–
